According to patent publication EP1143981B1, “USE OF N-GLYCOLNEURAMINIC ACID AND ITS DERIVATIVES FOR THE MANUFACTURE OF A MEDICAMENT FOR THE TREATMENT OF HIV INFECTIONS” (Glukor, Inc., priority 1998, dated 2000):
Where two headings read alike, the source gives them in different places.

Key:
HIV-1 MN = format: cell-based
Protocol: Test groups included uninfected PBMCs, infected PBMCs with no N-glycolylneuraminic acid, and infected PBMCs plus N-glycolylneuraminic acid. […] Excess virus was removed by washing the cells with PBS one time then the cells were exposed to N-glycolylneuraminic acid. P24 output was measured using the DuPont P24 assay kit (optical density (OD) in Table 15). Syncytia formation was examined as well as cytopathic effects (CPE). […] Sample #7 (p24 123x10^6 pg HIV-1P24/ml) was excluded from the mean P24 output calculation due to a sampling error. […]

HIV-1RF = assay: CEM-SS cell-based anti-HIV assay (XTT); settings: 3.2µM to 1 mM; CEM-SS cells
Protocol: Cell Preparation: Prior to infection, CEM-SS cells were grown in complete tissue culture medium (RPMI 1640 medium with 10% heat-inactivated fetal bovine serum, 2mM L-glutamine, 100 U/mL penicillin, 100 µg/mL streptomycin, 10 µg/mL gentamycin) and transferred to T-150 flasks. On the day preceding the assay, the cells were split 1:2 to assure the cells would be in an exponential growth phase at time of infection. On the day of assay, the cells were washed twice with tissue culture medium and resuspended in fresh tissue culture medium. Total cell and viability counting were performed using a hemacytometer and trypan blue dye exclusion. Cell viability was greater than 95% for the cells to be utilized in the assay. […]
Virus Preparation: Pre-tittered aliquots of HIV-1ROJO and HIV-1RF were removed from the freezer (-80°C) and thawed to room temperature in a biological safety cabinet. The virus was resuspended and diluted into tissue culture medium such that the amount of virus added to each well in a volume of 50 µL will be the amount determined to give complete cell killing at 6 days post-infection.
Tetrazolium dye staining of screening plates: After 6 days of incubation (37°C with 5% CO2), the test plates were analyzed by staining with the tetrazolium dye XTT (2,3-b (2-methoxy-4-nitro-5-sulfophenyl)-2H-tetrazolium -5-carboxanilide). […]

HIV-1IIIB = assay: PBMC cell-based anti-HIV assay; settings: PBMCs; laboratory strain
Protocol: For the standard PBMC assay, PHA-P stimulated cells from at least two normal donors were pooled, diluted in fresh medium to a final concentration of 1 x 10^6 cells/mL, and plated in the interior wells of a 96 well round bottom microplate at 50 µL/well (5 x 10^4 cells/well). Test drug dilutions were prepared at a 2X concentration in microfuge tubes and 100 µL of each concentration was placed in appropriate wells in a standard format. A predetermined dilution of virus stock was placed in each test well (50 µL, final MOI ≅ 0.1). Wells with cells and virus alone were used for virus control. Separate plates were prepared identically without virus for drug cytotoxicity studies using an XTT assay system. The PBMC cultures were maintained for seven days following infection, at which time cell-free supernatant samples were collected and assayed for reverse transcriptase activity as described below.
Reverse Transcriptase Activity Assay: A microtiter based reverse transcriptase (RT) reaction was utilized as described by Buckheit et al., (1991), AIDS Research and Human Retroviruses, 7:295-302. Tritiated thymidine triphosphate (^3H-TTP) was suspended in distilled H2O at 5 Ci/mL. […] Opti-Fluor-O (Packard) was added to each sample and incorporated radioactivity was quantified utilizing a Wallac 1450 MicroBeta Plus liquid scintillation counter. […]

## O=C(CO)N[C@H]1[C@H]([C@H](O)[C@H](O)CO)OC(O)(C(=O)O)C[C@@H]1O (stereo partly shown) [N-glycolylneuraminic acid]
HIV-1 MN; Neu5Gc dilution 1:2
  CPE: negative
  O.D.: 0.017
  P-24: 320 picograms HIV-1 p24 per mL
  Syncytia: negative
HIV-1 MN; Neu5Gc dilution 1:4
  CPE: negative
  O.D.: 0.043
  P-24: 922 picograms HIV-1 p24 per mL
  Syncytia: negative
HIV-1 MN; Neu5Gc dilution 1:8
  CPE: negative
  O.D.: 0.057
  P-24: 871 picograms HIV-1 p24 per mL
  Syncytia: negative
HIV-1 MN; Neu5Gc dilution 1:16
  CPE: negative
  O.D.: 0.061
  P-24: 824 picograms HIV-1 p24 per mL
  Syncytia: negative
HIV-1 MN; Neu5Gc dilution 1:32
  CPE: negative
  O.D.: 0.012
  P-24: 265 picograms HIV-1 p24 per mL
  Syncytia: negative
HIV-1 MN; Neu5Gc dilution 1:64
  CPE: negative
  O.D.: 0.041
  P-24: 865 picograms HIV-1 p24 per mL
  Syncytia: negative
HIV-1 MN; human, pbmcs
  cell viability: 25%
HIV-1 MN; samples treated with N-glycolylneuraminic acid (corrected for dilution factor)
  Mean p24 output: 624± 326 pg HIV-1P24/ml
HIV-1RF
  anti-HIV activity: did not display anti-HIV activity
HIV-1IIIB
  anti-HIV activity: inactive
